Legend:
rice [1] = experiment: Test B pre-/postemergence herbicide test; type: in vivo, Oryza sativa; conditions: preemergence
In short: (§1)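 Formulation: non-phytotoxic solvent mix with surfactant. Timing: preemergence on seed and postemergence on 2–18 cm plants, applied concurrently. Readout after 13–15 d greenhouse: visual 0–100 control rating against controls.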

wheat = experiment: Test B postemergence herbicide test; type: in vivo, Triticum aestivum; parameters: key to Wheat plant response rating: 0 = no effect, 100 = complete control; conditions: scale 0 (no effect) to 100 (complete control); for Plant response rating, Wheat: Postemergence, 500 g ai/ha, visual rating after 13 to 15 days; for Wheat plant response rating: postemergence, 125 g ai/ha, visual rating
In short: (§2)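 Read-out: visual comparison with controls, scored 0 to 100, where 100 means complete control and 0 no effect. Formulated chemicals were applied postemergence to plants 2–18 cm tall (1- to 4-leaf), or to flooded-paddy plants at the 2-leaf stage, then held 13 to 15 days under glass.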

lambsquarters = experiment: Test B pre-/postemergence herbicide test; type: in vivo, Chenopodium album; conditions: for Lambsquarters plant response rating: postemergence, visual rating
In short: as §1

morningglory = experiment: Test B pre-/postemergence herbicide test; type: in vivo, Ipomoea coccinea; conditions: for Morningglory plant response rating: postemergence, visual rating
In short: (§3)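 Pre: seeds sown, then sprayed. Post: 1–4-leaf plants (2–18 cm) sprayed at the same time. Paddy: flooded, treated at 2-leaf stage. Formulation: non-phytotoxic solvent with surfactant. Greenhouse 13–15 days; visual 0–100 score relative to controls.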

[2] = test system: small flower umbrella sedge; experiment: Test B flooded paddy test; type: in vivo, Cyperus difformis; conditions: 1000 g ai/ha, visual rating, scale 0 to 100 (0 no effect, 100 complete control), 13 to 15 days
In short: as §2

wild oat = experiment: Test B postemergence herbicide test; type: in vivo, Avena fatua; conditions: scale 0 (no effect) to 100 (complete control); for Plant response rating, Oat, Wild: Postemergence, 500 g ai/ha, visual rating after 13 to 15 days; for Oat, Wild plant response rating: postemergence, 125 g ai/ha, visual rating
In short: as §2

cocklebur = experiment: Test B pre-/postemergence herbicide test; type: in vivo, Xanthium strumarium; conditions: for Cocklebur plant response rating: postemergence, visual rating
In short: as §3

barnyardgrass [3] = experiment: Test B flooded paddy test; type: in vivo, Echinochloa crus-galli; conditions: 1000 g ai/ha, visual rating, scale 0 to 100 (0 no effect, 100 complete control), 13 to 15 days
In short: as §2

corn = experiment: Test B pre-/postemergence herbicide test; type: in vivo, Zea mays; conditions: for Corn plant response rating: postemergence, visual rating
In short: as §1

barnyardgrass [4] = experiment: Test B pre-/postemergence herbicide test; type: in vivo, Echinochloa crus-galli; conditions: for Barnyardgrass plant response rating: postemergence, visual rating
In short: as §3

velvetleaf = experiment: Test B pre-/postemergence herbicide test; type: in vivo, Abutilon theophrasti; conditions: for Velvetleaf plant response rating: postemergence, visual rating
In short: as §1

Surinam grass = experiment: Test B pre-/postemergence herbicide test; type: in vivo, Urochloa decumbens; conditions: for Surinam Grass plant response rating: postemergence, visual rating
In short: as §1

pigweed = experiment: Test B pre-/postemergence herbicide test; type: in vivo, Amaranthus retroflexus; conditions: for Pigweed plant response rating: postemergence, visual rating
In short: as §1

ducksalad = experiment: Test B flooded paddy test; type: in vivo, Heteranthera limosa; conditions: 1000 g ai/ha, visual rating, scale 0 to 100 (0 no effect, 100 complete control), 13 to 15 days
In short: as §2

large crabgrass = experiment: Test B pre-/postemergence herbicide test; type: in vivo, Digitaria sanguinalis; conditions: for Crabgrass, Large plant response rating: postemergence, visual rating
In short: as §1

rice [5] = experiment: Test B flooded paddy test; type: in vivo, Oryza sativa; conditions: 1000 g ai/ha, visual rating, scale 0 to 100 (0 no effect, 100 complete control), 13 to 15 days
In short: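 Scale 0–100: zero equals no visible effect, 100 complete control, judged by eye relative to controls. Timing: 13 to 15 days in greenhouse post-treatment. Growth stage at spraying: two leaves (paddy) or one to four leaves, 2–18 cm (postemergence).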

giant foxtail = experiment: Test B pre-/postemergence herbicide test; type: in vivo, Setaria faberi; conditions: for Foxtail, Giant plant response rating: postemergence, visual rating
In short: as §1

blackgrass = experiment: Test B postemergence herbicide test; type: in vivo, Alopecurus myosuroides; conditions: scale 0 (no effect) to 100 (complete control); for Plant response rating, Blackgrass: Postemergence, 500 g ai/ha, visual rating after 13 to 15 days; for Blackgrass plant response rating: postemergence, 125 g ai/ha, visual rating
In short: as §2

[6] = 125 g ai/ha, 0 to 100 scale, 0 is no effect, 100 is complete control
[7] = 500 g ai/ha, visual rating 0-100, 0 no effect, 100 complete control, preemergence
[8] = Postemergence, 500 g ai/ha, visual rating after 13 to 15 days, scale 0 (no effect) to 100 (complete control)
[9] = 125 g ai/ha, scale 0 (no effect) to 100 (complete control)
[10] = preemergence, 125 g ai/ha, 0 to 100 scale, 0 is no effect, 100 is complete control

Compound: CCOC(=O)c1cc(NC(=O)c2cc(C(C)(C)C)nn2CC)ccc1C [Compound 99]
- Plant response rating, Rice (rice [1]; 500 g ai/ha, visual rating 0-100, 0 no effect, 100 complete control): 0
- Plant response rating, Rice (rice [1]; [6]): 0
- Plant response rating, Wheat (wheat): 20
- Wheat plant response rating (wheat): 20
- Plant response rating, Lambsquarters (lambsquarters; [7]): 20
- Plant response rating, Lambsquarters (lambsquarters; [8]): 90
- Lambsquarters plant response rating (lambsquarters; [9]): 70
- Plant response rating, Lambsquarters (lambsquarters; [10]): 0
- Plant response rating, Morningglory (morningglory; [7]): 0
- Plant response rating, Morningglory (morningglory; [8]): 20
- Morningglory plant response rating (morningglory; [9]): 0
- Plant response rating, Morningglory (morningglory; [10]): 0
- Sedge, Umbrella plant response rating [2]: 40
- Plant response rating, Oat, Wild (wild oat): 40
- Oat, Wild plant response rating (wild oat): 20
- Plant response rating, Cocklebur (cocklebur; [7]): 0
- Plant response rating, Cocklebur (cocklebur; [8]): 30
- Cocklebur plant response rating (cocklebur; [9]): 0
- Plant response rating, Cocklebur (cocklebur; [10]): 0
- Barnyardgrass plant response rating (barnyardgrass [3]): 0
- Plant response rating, Corn (corn; [7]): 0
- Plant response rating, Corn (corn; [8]): 20
- Corn plant response rating (corn; [9]): 10
- Plant response rating, Corn (corn; [10]): 0
- Plant response rating, Barnyardgrass (barnyardgrass [4]; [7]): 30
- Plant response rating, Barnyardgrass (barnyardgrass [4]; [8]): 0
- Barnyardgrass plant response rating (barnyardgrass [4]; [9]): 0
- Plant response rating, Barnyardgrass (barnyardgrass [4]; [10]): 0
- Plant response rating, Velvetleaf (velvetleaf; [7]): 20
- Plant response rating, Velvetleaf (velvetleaf; [8]): 40
- Velvetleaf plant response rating (velvetleaf; [9]): 20
- Plant response rating, Velvetleaf (velvetleaf; [10]): 10
- Plant response rating, Surinam Grass (Surinam grass; [7]): 30
- Plant response rating, Surinam Grass (Surinam grass; [8]): 10
- Surinam Grass plant response rating (Surinam grass; [9]): 10
- Plant response rating, Surinam Grass (Surinam grass; [10]): 10
- Plant response rating, Pigweed (pigweed; [8]): 70
- Pigweed plant response rating (pigweed; [9]): 20
- Plant response rating, Pigweed (pigweed; [10]): 0
- Ducksalad plant response rating (ducksalad): 0
- Plant response rating, Crabgrass, Large (large crabgrass; [7]): 70
- Plant response rating, Crabgrass, Large (large crabgrass; [8]): 10
- Crabgrass, Large plant response rating (large crabgrass; [9]): 10
- Plant response rating, Crabgrass, Large (large crabgrass; [10]): 20
- Rice plant response rating (rice [5]): 0
- Plant response rating, Foxtail, Giant (giant foxtail; [7]): 20
- Plant response rating, Foxtail, Giant (giant foxtail; [8]): 30
- Foxtail, Giant plant response rating (giant foxtail; [9]): 10
- Plant response rating, Foxtail, Giant (giant foxtail; [10]): 10
- Plant response rating, Blackgrass (blackgrass): 40
- Blackgrass plant response rating (blackgrass): 20

Compound: CCCCn1nc(C(C)(C)C)cc1C(=O)Nc1cccc(C(C)=NO)c1 [Compound 119]
- Plant response rating, Rice (rice [1]; [6]): 0
- Plant response rating, Wheat (wheat): 0
- Wheat plant response rating (wheat): 0
- Plant response rating, Lambsquarters (lambsquarters; [7]): 0
- Plant response rating, Lambsquarters (lambsquarters; [8]): 60
- Lambsquarters plant response rating (lambsquarters; [9]): 0
- Plant response rating, Lambsquarters (lambsquarters; [10]): 0
- Plant response rating, Morningglory (morningglory; [7]): 10
- Plant response rating, Morningglory (morningglory; [8]): 40
- Morningglory plant response rating (morningglory; [9]): 0
- Plant response rating, Morningglory (morningglory; [10]): 0
- Sedge, Umbrella plant response rating [2]: 0
- Plant response rating, Oat, Wild (wild oat): 20
- Oat, Wild plant response rating (wild oat): 10
- Plant response rating, Cocklebur (cocklebur; [7]): 0
- Plant response rating, Cocklebur (cocklebur; [8]): 60
- Cocklebur plant response rating (cocklebur; [9]): 0
- Plant response rating, Cocklebur (cocklebur; [10]): 0
- Barnyardgrass plant response rating (barnyardgrass [3]): 0
- Plant response rating, Corn (corn; [7]): 0
- Plant response rating, Corn (corn; [8]): 30
- Corn plant response rating (corn; [9]): 10
- Plant response rating, Corn (corn; [10]): 0
- Plant response rating, Barnyardgrass (barnyardgrass [4]; [7]): 10
- Plant response rating, Barnyardgrass (barnyardgrass [4]; [8]): 10
- Barnyardgrass plant response rating (barnyardgrass [4]; [9]): 0
- Plant response rating, Barnyardgrass (barnyardgrass [4]; [10]): 0
- Plant response rating, Velvetleaf (velvetleaf; [7]): 10
- Plant response rating, Velvetleaf (velvetleaf; [8]): 50
- Velvetleaf plant response rating (velvetleaf; [9]): 0
- Plant response rating, Velvetleaf (velvetleaf; [10]): 0
- Plant response rating, Surinam Grass (Surinam grass; [7]): 10
- Plant response rating, Surinam Grass (Surinam grass; [8]): 10
- Surinam Grass plant response rating (Surinam grass; [9]): 10
- Plant response rating, Surinam Grass (Surinam grass; [10]): 0
- Plant response rating, Pigweed (pigweed; [7]): 0
- Plant response rating, Pigweed (pigweed; [8]): 30
- Pigweed plant response rating (pigweed; [9]): 0
- Plant response rating, Pigweed (pigweed; [10]): 0
- Ducksalad plant response rating (ducksalad): 0
- Plant response rating, Crabgrass, Large (large crabgrass; [7]): 80
- Plant response rating, Crabgrass, Large (large crabgrass; [8]): 20
- Crabgrass, Large plant response rating (large crabgrass; [9]): 20
- Plant response rating, Crabgrass, Large (large crabgrass; [10]): 20
- Rice plant response rating (rice [5]): 0
- Plant response rating, Foxtail, Giant (giant foxtail; [7]): 0
- Plant response rating, Foxtail, Giant (giant foxtail; [8]): 10
- Foxtail, Giant plant response rating (giant foxtail; [9]): 10
- Plant response rating, Foxtail, Giant (giant foxtail; [10]): 0
- Plant response rating, Blackgrass (blackgrass): 10
- Blackgrass plant response rating (blackgrass): 0

Source: patent US20060069132A1, “Azolecarboxamide herbicides” (priority 2004, published 2006)
